Source: PubChem BioAssay AID492986 (Sanford-Burnham Center for Chemical Genomics, 2010)
Activity calls are given as the source filed them.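 How the source made its calls: active means IC50 below 20 µM; inactive means the rest.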

The compounds below were run against Apelin receptor (Homo sapiens) (UniProt P35414) (assay: APJ receptor antagonists, beta-arrestin recruitment, SAR follow-up, cell-based, CHO-K1 AGTRL-1, PathHunter luminescence, set 4 (AID 492986)). Conditions: CHO-K1 AGTRL-1 beta-arrestin.
Sequence of Apelin receptor (Homo sapiens) (P35414 whole entry, looked up): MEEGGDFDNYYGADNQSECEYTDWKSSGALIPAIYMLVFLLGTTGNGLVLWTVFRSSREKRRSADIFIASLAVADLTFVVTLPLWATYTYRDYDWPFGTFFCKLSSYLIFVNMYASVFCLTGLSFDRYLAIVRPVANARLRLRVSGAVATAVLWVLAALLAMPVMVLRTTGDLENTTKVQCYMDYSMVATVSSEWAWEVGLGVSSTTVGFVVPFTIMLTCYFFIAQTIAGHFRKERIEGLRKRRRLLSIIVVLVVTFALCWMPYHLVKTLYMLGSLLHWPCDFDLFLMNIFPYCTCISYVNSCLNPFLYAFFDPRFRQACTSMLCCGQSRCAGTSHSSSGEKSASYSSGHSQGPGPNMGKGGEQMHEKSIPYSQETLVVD

Compound	IC50
Cc1ccnc(SCc2cc(=O)c(NC(=O)c3ccccc3)co2)n1	> 79 µM (inactive)
Cc1ccnc(SCc2cc(=O)c(OC(=O)c3cccc(C#N)c3)co2)n1	> 79 µM (inactive)
Cc1cc(C)nc(SCc2cc(=O)c(OS(=O)(=O)c3ccccc3)co2)n1	> 79 µM (inactive)
O=C(Oc1coc(CCl)cc1=O)c1ccc(Cl)c([N+](=O)[O-])c1	> 79 µM (inactive)
Cc1cc(C)nc(SCc2cc(=O)c(OS(=O)(=O)c3ccc([N+](=O)[O-])cc3)co2)n1	> 79 µM (inactive)
O=c1cc(CSc2ccc(F)cc2)occ1O	> 79 µM (inactive)
